Results: patent US7235577B1 (priority 2000, dated 2007)
Like-named read-outs stand apart in the source and are kept apart here.

What was measured:
[1] = biological target: human IKCa1 channel (Homo sapiens, UniProt O15554); test: cell-based
Procedure: COS-7 cells, maintained in Dulbecco's modified Eagle's medium (DMEM) containing 10% heat-inactivated fetal calf serum, 4 mM L-glutamine and 1 mM Na^+ pyruvate, were transiently transfected with hlKCa1.
Electrophysiological experiments were carried out in the whole-cell configuration of the patch-clamp technique using an EPC-9 amplifier (HEKA Elektronik, Lambrecht Germany) interfaced to a computer running acquisition and analysis software (Pulse and Pulsfit; HEKA Elektronik). Pipettes were pulled from soft glass capillaries, coated with Sylgard (Dow-Corning, Midland, Mich.), and fire polished to resistances of 2.0–4.5 MΩ measured in the bath. COS-7 cells were trypsinized and plated on glass coverslips 3 h before measurement. […] To prevent activation of the native chloride channels in COS-7 cells an aspartate Ringer solution was used as an external solution (160 mM Na^+ aspartate, 4.5 mM KCl, 2 mM CaCl2, 1 mM MgCl2, 5 mM HEPES, adjusted to pH 7.4 with NaOH, with an osmolarity of 290–310 mosM). 200 ms voltage ramps from −120 mV to 40 mV every 10 s were used. The holding potential in all experiments was −80 mV. Series resistance compensation was not employed. The reduction of slope conductance at −80 mV was used to determine the Kd-value by fitting the values to the Hill equation with a Hill coefficient of unity.

[2] = read-out: Kd for block of IKCa1, hIKCa1 in COS-7 cells, reduction of slope conductance at −80 mV, 1 μM free Ca++ in pipette

Sequence of human IKCa1 channel (O15554 whole entry): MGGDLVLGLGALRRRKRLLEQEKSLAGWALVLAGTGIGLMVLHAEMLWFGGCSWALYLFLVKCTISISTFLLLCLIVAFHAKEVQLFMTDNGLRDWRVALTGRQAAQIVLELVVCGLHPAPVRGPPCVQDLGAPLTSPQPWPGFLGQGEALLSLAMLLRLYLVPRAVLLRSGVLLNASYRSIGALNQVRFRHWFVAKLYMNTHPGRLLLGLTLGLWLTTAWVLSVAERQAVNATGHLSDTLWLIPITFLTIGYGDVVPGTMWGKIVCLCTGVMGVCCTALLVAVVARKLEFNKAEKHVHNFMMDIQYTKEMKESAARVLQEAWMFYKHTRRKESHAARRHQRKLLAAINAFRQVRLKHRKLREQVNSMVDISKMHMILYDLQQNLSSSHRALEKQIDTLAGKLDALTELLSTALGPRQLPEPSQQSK

Row | melting point [°C] | Kd [1] [µM] | SMILES | further results
1 | 129 | 1.5 | OC(c1ccccc1)(c1ccccc1)c1cccs1 [Compound T9, (2-Thienyl)diphenyl methanol] | –
2 | 116 | 0.7 | OC(c1ccccc1)(c1ccccc1)c1ccccc1F [Compound T36, (2-Fluorophenyl)diphenyl methanol] | –
3 | 120.5 | 0.7 | OC(c1ccccc1)(c1ccccc1)c1ccc(F)cc1 [Compound T12, (4-Fluorophenyl)diphenyl methanol] | –
4 | 215 | 1.2 | CC(=O)NC(c1ccccc1)(c1ccccc1)c1ccccc1F [Compound T76, N-(2-Fluorophenyl)diphenylmethyl acetamide] | –
5 | 126 | 30 | c1ccc(C(c2ccccc2)(c2ccccc2)N2CCCC2)cc1 [Compound T7, 1-Tritylpyrrolidine] | –
6 | 76 | 0.8 | N#CC(c1ccccc1)(c1ccccc1)c1ccc(F)cc1 [Compound T27, 2-(4-Fluorophenyl)2,2-diphenylacetonitrile] | –
7 | 238 | 8 | NC(=O)NC(c1ccccc1)(c1ccccc1)c1ccccc1 [Compound T24, N-trityl urea] | –
8 | 201 | – | c1ccc(C(NCc2ccc(CNC(c3ccccc3)(c3ccccc3)c3ccccc3)cc2)(c2ccccc2)c2ccccc2)cc1 [Compound T23, 1,4-Ditritylaminomethyl benzene] | Kd for block of IKCa1 ([1]; hIKCa1 in COS-7 cells, reduction of slope conductance at −80 mV, 1 μM free Ca++ in pipette): No effect at 1 μM
9 | 53 | 0.53 | OC(c1ccccc1)(c1ccccc1)c1cccc(Cl)c1 [Compound T2, (3-Chlorophenyl)diphenyl methanol] | –

More lines, now with the values behind:

Row | SMILES | melting point [°C] | Kd [1] [µM] | further results
10 | OC(c1ccccc1)(c1cccs1)c1cccs1 [Compound T35, Di-(2-thienyl)phenyl methanol] | 86 | 9 | –
11 | OC(c1ccccc1)(c1ccccc1)c1ccc(Cl)cc1 [Compound T1, (4-Chlorophenyl)diphenyl methanol] | 82 | 0.55 | –
12 | Clc1ccccc1C(c1ccccc1)(c1ccccc1)n1cccc1 | 184 | – | –
13 | NC(=O)NC(c1ccccc1)(c1ccccc1)c1ccccc1F [Compound T45, N-[(2-Fluorophenyl)diphenylmethyl] urea] | 225 | 1 | –
14 | NC(=O)NC(c1ccccc1)(c1ccccc1)c1ccc(F)cc1 [Compound T31, N-[(4-Fluorophenyl)diphenylmethyl] urea] | 222 | 8 | –
15 | Clc1ccccc1C(NCCNC(c1ccccc1)(c1ccccc1)c1ccccc1Cl)(c1ccccc1)c1ccccc1 [Compound T48, N,N-1,2-[(2-Chlorophenyl)diphenylmethyl]-amino ethane] | 228 | 30 | –
16 | c1ccc(C(c2ccccc2)(c2ccccc2)n2cccc2)cc1 [Compound T10, 1-Trityl-1H-pyrrole] | 243 | 28 | –
17 | NC(=O)NC(c1ccccc1)(c1ccccc1)c1ccc(Cl)cc1 [Compound T29, N-[(4-Chlorophenyl)diphenylmethyl] urea] | 228 | 15 | –
18 | c1ccc(C(Nc2nccs2)(c2ccccc2)c2ccccc2)cc1 | 213 | – | –
19 | NC(=O)NC(c1ccccc1)(c1ccccc1)c1ccccc1Cl | 243 | – | –
20 | Clc1ccccc1C(c1ccccc1)(c1ccccc1)n1cnnn1 [Compound T84, 1-[(2-Chlorophenyl)diphenylmethyl]-1H-1,2,3,4-tetrazole] | – | 0.045 | IKCa1 inhibition compared with clotrimazole ([1]; refers to TABLE 8): more potent inhibitors of IKCa1 channels than clotrimazole
21 | CCOC(=O)C(C(=O)OCC)C(c1ccccc1)(c1ccccc1)c1ccccc1Cl [Compound T77] | – | – | Kd [1, 2]: 0.8 µM
22 | Clc1ccccc1C(Nc1ccccn1)(c1ccccc1)c1ccccc1 [Compound T69, N-[(2-Chlorophenyl)diphenylmethyl]-N-(2-pyridyl)amine] | – | 28 | –
23 | NC(c1ccccc1)(c1ccccc1)c1ccccc1Cl [Compound T41, (2-chlorophenyl)diphenylmethyl amine] | – | – | Kd [1, 2]: 5 µM
